Data from patent US11999699B2, “Substituted pyrazole amides” (GRUENENTHAL GMBH, priority 2021, dated 2024).
pIC50: −log10 of the molar value.

Target: T1, human NaV1.8 (Homo sapiens, UniProt Q9Y5Y9)
T1 construct: The following NaV1.8 recombinant cell line was used for recordings: HEK-NaV1.8 (NM 006514.1); expressed in transfected cells; host or cells: HEK (recombinant cell line HEK-NaV1.8)
Test: Electrophysiology: automated whole-cell voltage-clamp (patch clamp, Qube384) recordings of sodium currents in HEK-NaV1.8 cells
Format: cell-based
Conditions: potency data either taken from inactivated or resting state, read-out: Potency category (human NaV1.8 IC50)
Procedure: Electrophysiology: Voltage-Clamp Recordings
The following NaV1.8 recombinant cell line was used for recordings: HEK-NaV1.8 (NM 006514.1) with in (NM 018400.3).
Sodium currents were measured using the patch clamp technique in the whole-cell configuration using the Qube384 (Sophion A/S, Copenhagen, Denmark) automated voltage clamp platform. “Multi hole” plates were used for the cell line expressing NaV1.8 while “single hole” plates were used for the recombinant cell lines expressing the other subtypes. Appropriate filters (for minimum seal resistance and minimum current size) and series resistance compensation (for high quality sodium channel recordings) were applied. Data was collected at ambient room temperature.
The recording extracellular solution contained (in mM): NaCl 145 mM, KCl 4 mM, CaCl2 2 mM, MgCl2 1 mM, HEPES 10 mM, Glucose 10 mM, pH 7.4 (NaOH). The intracellular recording solution contained (in mM): CsF 120 mM, CsCl 20 mM, NaCl 10 mM, EGTA 10 mM, HEPES 10 mM, pH 7.2 (CsOH). Currents were recorded at 25 kHz sampling frequency and filtered at 5 kHz. Series resistance compensation was applied at 65%.
Vehicle (VEH) is the control condition where cells are exposed to 0.3% DMSO without compound. All runs include VEH controls being exposed to the same voltage protocols to assess non-compound related phenomena such as run down and then used to isolate compound dependent effects on currents.
To check for state-dependence inhibition, the following voltage-sequence was applied every 20 seconds:
From a resting membrane potential of −120 mV, the first test pulse (P1; 20 ms to −10 mV) was applied to check for channels in the Resting State followed by a brief recovery (20 ms to −120 mV), then holding the membrane voltage to V112 (4 seconds at voltage to obtain half the channel at Rest and half Inactivated) with a subsequent second test pulse (P2; 20 ms to −10 mV) to check for channels in the Inactivated State, followed by another brief recovery (20 ms to −120 mV) and a final third test pulse (P3; 20 ms to −10 mV) to check for recovered channels.
To check for frequency-dependent inhibition, a 10 Hz protocol and a 20 Hz protocol were applied; namely,
From a resting membrane potential of −120 mV, 40-pulses (10 ms to −10 mV) was applied at 10 Hz (at 100 ms between pulses) and then at 20 Hz (at 50 ms between pulses).
Each parameter was recorded (P1, P2, P3, P40 from 10 Hz and P40 from 20 Hz) during a control period (lasting 5 minutes) when establishing the baseline and during compound period (lasting ˜12 minutes) when test compound (or vehicle) was applied. For each parameter, the value at the end of the compound period was normalized to the vehicle baseline; as follows
To adjust for any variance in the Na^+ current signal during the compound period (owing to cumulative inactivation independent of compound or shifts in biophysics over time), a dedicated segment of the recording wells in each 384 plate were dedicated to having only vehicle exposure. These vehicle-only recordings were used to correct for any apparent “run-up” or “run-down” in the experiment.
The adjusted inhibition was calculated as follows: […]
Percent inhibition was determined and IC50 values were calculated using a 4 parameter logistic model within XLFit Software (IDBS, Boston MA):
[formula] where A and B are the maximal and minimum inhibition respectively, C is the IC50 concentration and D is the (Hill) slope.
The potency data was either taken from inactivated or resting state.

T1 sequence (Q9Y5Y9 whole entry): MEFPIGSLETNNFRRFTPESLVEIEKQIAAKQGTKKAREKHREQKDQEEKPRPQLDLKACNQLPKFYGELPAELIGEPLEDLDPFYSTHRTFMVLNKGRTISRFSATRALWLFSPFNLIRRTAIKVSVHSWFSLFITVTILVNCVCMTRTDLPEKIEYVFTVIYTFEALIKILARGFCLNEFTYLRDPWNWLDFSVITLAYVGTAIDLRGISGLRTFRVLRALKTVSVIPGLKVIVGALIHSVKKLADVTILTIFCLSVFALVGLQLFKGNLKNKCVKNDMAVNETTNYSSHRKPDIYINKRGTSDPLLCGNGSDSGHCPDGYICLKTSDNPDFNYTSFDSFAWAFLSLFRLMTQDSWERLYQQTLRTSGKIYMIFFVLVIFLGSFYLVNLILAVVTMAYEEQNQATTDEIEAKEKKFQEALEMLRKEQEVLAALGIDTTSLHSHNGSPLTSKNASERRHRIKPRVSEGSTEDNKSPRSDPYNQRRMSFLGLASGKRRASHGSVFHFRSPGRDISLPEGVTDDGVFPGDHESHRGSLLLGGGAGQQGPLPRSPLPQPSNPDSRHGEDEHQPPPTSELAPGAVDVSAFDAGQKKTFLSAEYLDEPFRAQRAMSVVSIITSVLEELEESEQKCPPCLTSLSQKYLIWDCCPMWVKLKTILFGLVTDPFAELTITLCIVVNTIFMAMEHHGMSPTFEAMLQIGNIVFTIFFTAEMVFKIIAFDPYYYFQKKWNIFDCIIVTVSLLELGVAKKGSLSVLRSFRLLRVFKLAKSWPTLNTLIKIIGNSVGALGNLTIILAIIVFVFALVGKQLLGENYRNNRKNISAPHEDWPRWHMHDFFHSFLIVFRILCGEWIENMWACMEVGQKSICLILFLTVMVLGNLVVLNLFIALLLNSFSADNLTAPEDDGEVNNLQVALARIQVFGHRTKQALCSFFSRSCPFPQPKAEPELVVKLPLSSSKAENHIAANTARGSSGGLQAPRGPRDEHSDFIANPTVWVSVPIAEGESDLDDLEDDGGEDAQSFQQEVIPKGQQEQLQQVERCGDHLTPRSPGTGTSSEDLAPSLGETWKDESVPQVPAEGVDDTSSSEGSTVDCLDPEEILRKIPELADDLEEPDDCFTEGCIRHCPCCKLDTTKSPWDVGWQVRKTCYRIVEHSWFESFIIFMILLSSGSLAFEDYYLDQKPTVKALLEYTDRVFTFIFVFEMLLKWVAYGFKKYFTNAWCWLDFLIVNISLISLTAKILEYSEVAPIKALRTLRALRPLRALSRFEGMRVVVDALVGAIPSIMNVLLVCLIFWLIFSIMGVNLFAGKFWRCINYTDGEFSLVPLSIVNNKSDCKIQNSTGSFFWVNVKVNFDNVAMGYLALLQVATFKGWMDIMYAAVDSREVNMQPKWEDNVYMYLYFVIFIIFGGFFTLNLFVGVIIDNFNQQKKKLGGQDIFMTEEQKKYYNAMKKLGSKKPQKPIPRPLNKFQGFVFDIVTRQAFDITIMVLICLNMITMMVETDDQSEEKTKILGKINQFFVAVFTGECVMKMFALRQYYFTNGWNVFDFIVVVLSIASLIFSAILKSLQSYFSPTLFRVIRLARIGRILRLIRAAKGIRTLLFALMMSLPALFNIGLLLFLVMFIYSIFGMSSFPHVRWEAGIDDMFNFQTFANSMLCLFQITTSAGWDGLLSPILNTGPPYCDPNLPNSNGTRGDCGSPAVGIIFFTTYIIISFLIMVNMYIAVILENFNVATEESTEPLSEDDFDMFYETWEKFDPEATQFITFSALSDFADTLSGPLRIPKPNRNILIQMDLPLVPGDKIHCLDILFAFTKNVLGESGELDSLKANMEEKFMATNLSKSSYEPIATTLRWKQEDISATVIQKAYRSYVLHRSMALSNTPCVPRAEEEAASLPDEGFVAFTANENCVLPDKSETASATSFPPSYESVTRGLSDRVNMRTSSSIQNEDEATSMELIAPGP
T1 sequence (Q9NY72 23-215 partner): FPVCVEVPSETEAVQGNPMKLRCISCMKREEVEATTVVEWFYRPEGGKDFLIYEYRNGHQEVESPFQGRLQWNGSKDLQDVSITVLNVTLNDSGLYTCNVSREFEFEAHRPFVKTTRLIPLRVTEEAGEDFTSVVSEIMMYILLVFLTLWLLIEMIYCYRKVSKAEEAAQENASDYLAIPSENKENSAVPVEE

SMILES | pIC50
NC(=O)c1cc(NC(=O)c2c(C(F)(F)F)c(OC3CC(F)(F)C3)nn2CC2CCC(F)(F)C2)ccn1 (stereo not drawn) [SC-283, 4-(3-(3,3-difluorocyclobutoxy)-1-((3,3-difluorocyclopentyl)methyl)-4-(trifluoromethyl)-1H-pyrazole-5-carboxamido)picolinamide] | ≥ 7.00
Cc1c(C(C)(F)F)nn(CC2CC(F)(F)CC2C(F)(F)F)c1C(=O)Nc1ccnc(C(N)=O)c1 (racemic) [SC-217, 4-(1-((4,4-difluoro-2-(trifluoromethyl)cyclopentyl)methyl)-3-(1,1-difluoroethyl)-4-methyl-1H-pyrazole-5-carboxamido)picolinamide] | ≥ 7.00
Cc1c(OC(F)(F)F)nn(CC2CC(F)(F)C2)c1C(=O)Nc1ccnc(C(N)=O)c1 [SC-318, 4-(1-((3,3-difluorocyclobutyl)methyl)-4-methyl-3-(trifluoromethoxy)-1H-pyrazole-5-carboxamido)picolinamide] | 6.00 to 7.00
Cc1c(C(C)(F)F)nn(CC2(C(F)F)CC(F)(F)C2)c1C(=O)Nc1ccnc(S(N)(=O)=O)c1 [SC-316, 3-(1,1-difluoroethyl)-1-((1-(difluoromethyl)-3,3-difluorocyclobutyl)methyl)-4-methyl-N-(2-sulfamoylpyridin-4-yl)-1H-pyrazole-5-carboxamide] | ≥ 7.00
Cc1c(C(C)(F)F)nn(CC2C[C@@H](F)[C@@H](F)C2)c1C(=O)Nc1ccnc(S(C)(=O)=O)c1 (stereo partly drawn) [SC-224, 1-((3,4-difluorocyclopentyl)methyl)-3-(1,1-difluoroethyl)-4-methyl-N-(2-(methylsulfonyl)pyridin-4-yl)-1H-pyrazole-5-carboxamide] | 6.00 to 7.00
COC1CC(Cn2nc(C3CC3)c(C(F)(F)F)c2C(=O)Nc2ccnc(C(N)=O)c2)C1 (single isomer, unassigned) [SC-281a] | 6.00 to 7.00
NC(=O)c1cc(NC(=O)c2c(C(F)(F)F)c(C3CC3)nn2CC2CC(C(F)F)C2)ccn1 (single isomer, unassigned) [SC-221a, 4-(3-cyclopropyl-1-((3-(difluoromethyl)cyclobutyl)methyl)-4-(trifluoromethyl)-1H-pyrazole-5-carboxamido)picolinamide] | ≥ 7.00
CCc1nn(CC2CCC(F)(F)C2)c(C(=O)Nc2ccnc(C(N)=O)c2)c1C(F)(F)F (stereo not drawn) [SC-218, 4-(1-((3,3-difluorocyclopentyl)methyl)-3-ethyl-4-(trifluoromethyl)-1H-pyrazole-5-carboxamido)picolinamide] | ≥ 7.00
CS(=O)(=O)c1cc(NC(=O)c2c(C(F)(F)F)c(C3CC3)nn2CC2CCCCO2)ccn1 (single isomer, unassigned) [SC-259a] | ≥ 7.00
Cc1nn(CC2CCO2)c(C(=O)Nc2cccc(S(C)(=O)=O)c2)c1C(F)(F)F (stereo not drawn) [SC-237, 3-methyl-N-(3-(methyIsulfonyl)phenyl)-1-(oxetan-2-yimethyl)-4-(trifluoromethyl)-1H-pyrazole-5-carboxamide] | 5.00 to 6.00
CS(=O)(=O)c1cc(NC(=O)c2c(OC(F)F)c(C3CC3)nn2CC2CCOCC2)ccn1 [SC-322, 3-cyclopropyl-4-(difluoromethoxy)-N-(2-(methylsulfonyl)pyridin-4-yl)-1-((tetrahydro-2H-pyran-4-yl)methyl)-1H-pyrazole-5-carboxamide] | 5.00 to 6.00
Cc1c([C@@H](C)C(F)F)nn(CC2CC(F)(F)C2)c1C(=O)Nc1ccnc(C(N)=O)c1 [SC-192a] | 6.00 to 7.00
NS(=O)(=O)c1cccc(NC(=O)c2c(C(F)(F)F)c(C3CC3)nn2CC2CC(F)(F)C2)c1 [SC-276, 3-cyclopropyl-1-((3,3-difluorocyclobutyl)methyl)-N-(3-sulfamoyIphenyl)-4-(trifluoromethyl)-lH-pyrazole-5-carboxamide] | ≥ 7.00
Cc1nn(CC2CCCCC2)c(C(=O)Nc2cccc(S(C)(=O)=O)c2)c1C [SC-06, 2-(cyclohexylmethyl)-4,5-dimethyl-N-(3-methylsulfonylphenyl)pyrazole-3-carboxamide] | 6.00 to 7.00
Cc1c(C(C)(F)F)nn(C[C@H]2C[C@@H](F)C2)c1C(=O)Nc1ccnc(C(N)=O)c1 [SC-301, 4-(3-(1,1-difluoroethyl)-1-((3-fluorocyclobutyl)methyl)-4-methyl-1H-pyrazole-5-carboxamido)picolinamide] | 6.00 to 7.00
NC(=O)c1cc(NC(=O)c2c(C(F)(F)F)c(C3CC3)nn2CC2CC2(F)F)ccn1 (single isomer, unassigned) [SC-279a] | 6.00 to 7.00
CS(=O)(=O)c1cc(NC(=O)c2c(C(F)(F)F)c(C3CC3)nn2CC2CC(OC(F)F)C2)ccn1 (stereo not drawn) [SC-290, 3-cyclopropyl-1-((3-(difluoromethoxy)cyclobutyl)methyl)-N-(2-(methyIsulfonyl)pyridin-4-yl)-4-(trifluoromethyl)-1H-pyrazole-5-carboxamide] | 6.00 to 7.00
NC(=O)c1cc(NC(=O)c2c(C(F)(F)F)c(C3CC3)nn2CC2CC(F)(F)C2)ccn1 [SC-144, 4-(3-cyclopropyl-1-((3,3-difluorocyclobutyl)methyl)-4-(trifluoromethyl)-1H-pyrazole-5-carboxamido)picolinamide] | ≥ 7.00

Results, then the compound that gave them:

pIC50 | SMILES
≥ 7.00 | NS(=O)(=O)c1cccc(NC(=O)c2c(C(F)(F)F)c(C(F)F)nn2CC2CCC(F)(F)C2)c1 (stereo not drawn) [SC-262, 1-((3,3-difluorocyclopentyl)methyl)-3-(difluoromethyl)-N-(3-sulfamoylphenyl)-4-(trifluoromethyl)-1H-pyrazole-5-carboxamide]
5.00 to 6.00 | CS(=O)(=O)c1cccc(NC(=O)c2c(C(F)(F)F)cnn2CC2(O)CCCCC2)c1 [SC-255, 1-((1-hydroxycyclohexyl)methyl)-N-(3-(methylsulfonyl)phenyl)-4-(trifluoromethyl)-1H-pyrazole-5-carboxamide]
≥ 7.00 | CS(=O)(=O)n1cc(NC(=O)c2c(C(F)(F)F)cnn2CC2CCCCC2)c2cccnc21 [SC-53, 1-(cyclohexylmethyl)-N-(1-(methylsulfonyl)-1H-pyrrolo[2,3-b]pyridin-3-yl)-4-(trifluoromethyl)-1H-pyrazole-5-carboxamide]
6.00 to 7.00 | CS(=O)(=O)c1cccc(NC(=O)c2c(C(F)(F)F)cnn2CC2CCC2)c1 [SC-24, 2-(cyclobutylmethyl)-N-(3-methylsulfonylphenyl)-4-(trifluoromethyl)pyrazole-3-carboxamide]
≥ 7.00 | COc1nn(CC2CCC(F)(F)C2)c(C(=O)Nc2cccc(S(N)(=O)=O)c2)c1C(F)(F)F (stereo not drawn) [SC-265, 1-((3,3-difluorocyclopentyl)methyl)-3-methoxy-N-(3-sulfamoyIphenyl)-4-(trifluoromethyl)-1H-pyrazole-5-carboxamide]
6.00 to 7.00 | Cc1c(C(F)(F)F)nn(CC2CCC(F)(F)CC2)c1C(=O)Nc1cncc(S(N)(=O)=O)c1 [SC-242, 1-((4,4-difluorocyclohexyl)methyl)-4-methyl-N-(5-sulfamoylpyridin-3-yl)-3-(trifluoromethyl)-1H-pyrazole-5-carboxamide]
≥ 7.00 | CS(=O)(=O)c1cc(NC(=O)c2c(C(F)(F)F)c(C3CC3)nn2CC2CC(F)(F)C2)ccn1 [SC-151, 3-cyclopropyl-1-((3,3-difluorocyclobutyl)methyl)-N-(2-(methylsulfonyl)pyridin-4-yl)-4-(trifluoromethyl)-1H-pyrazole-5-carboxamide]
≥ 7.00 | Cc1c(C(C)(F)F)nn(C[C@H]2CCC(F)(F)C2)c1C(=O)Nc1cccc(S(N)(=O)=O)c1 (single isomer, unassigned) [SC-296b]
5.00 to 6.00 | CS(=O)(=O)c1cncc(NC(=O)c2c(C(F)(F)F)cnn2CC2CCC(F)(F)CC2)c1 [SC-15, 2-[(4,4-difluorocyclohexyl)methyl]-N-(5-methylsulfonylpyridin-3-yl)-4-(trifluoromethyl)pyrazole-3-carboxamide]
